The source of these data is patent US20250179061A1 (SIRONAX LTD., priority 2022, published 2025).

The subject of the experiment is HT-29 cells. As to the kind of experiment: HT-29 necroptosis cell viability assay (TNF-α/SMAC mimetic/zVAD-FMK, CellTiter-Glo). Format: cell-based. In short, it runs like this:
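Necroptosis was triggered by TNF-α (10 ng/ml), SMAC mimetic (6 μM) and zVAD-FMK (10 μM) in serum-free medium during 20 h compound exposure (10 concentrations, threefold steps) of HT-29 cells. IC50 from duplicate dose-responses uses CellTiter-Glo ATP luminescence as viability read-out.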
Background: Cellular ATP, detected with luciferase, serves as a proxy for viable cell number.

[1] abbreviates: Homo sapiens, HT-29, HT-29 necroptosis cell viability assay, class symbols for IC50, read-out: Activity.
The mark [2] stands for this setting: Homo sapiens, HT-29, HT-29 necroptosis cell viability, IC50 class symbols, read-out: Activity.
[3] abbreviates: Homo sapiens, HT-29 cells stimulated with TNF-α (10 ng/ml), SMAC mimetic (6 μM) and zVAD-FMK (10 μM), 20 hours, CellTiter-Glo ATP luminescence, geometric mean IC50 from 10 points, read-out: Activity.

Read-outs that look alike come from different tables or passages of the source. Where only a bound is given, the exact number is not on record here.

`Cc1nc(C#N)sc1Oc1ccc(-n2ncn(Cc3cc(Cl)ccn3)c2=O)cc1F` [Example 574, 5-(4-(4-((4-chloropyridin-2-yl)methyl)-5-oxo-4,5-dihydro-1H-1,2,4-triazol-1-yl)-2-fluorophenoxy)-4-methylthiazole-2-carbonitrile]: the IC50 under setting [1] lay in the range of 0.1 to 1 µM. As for `Nc1cccc(F)c1Oc1ccc(-n2ncn(Cc3c(F)cccc3F)c2=O)cc1` [Example 442, 2-(4-(2-amino-6-fluorophenoxy)phenyl)-4-(2,6-difluorobenzyl)-2,4-dihydro-3H-1,2,4-triazol-3-one], under setting [2], the IC50 was below 0.1 µM. As to `Cc1nc(C(=O)NC2COC2)sc1Oc1ccc(-n2nc3n(c2=O)[C@H](c2ccccc2)CC3)cc1F` [Example 21, (S)-5-(2-fluoro-4-(3-oxo-5-phenyl-6,7-dihydro-3H-pyrrolo[2,1-c][1,2,4]triazol-2(5H)-yl)phenoxy)-4-methyl-N-(oxetan-3-yl)thiazole-2-carboxamide], the IC50 under setting [3] is below 0.1 µM. For the molecule `Cc1c(Oc2ccc(-n3ncn(Cc4c(F)cccc4F)c3=O)cc2F)ccnc1N1CC(C)(C#N)C1` [Example 227, 1-(4-(4-(4-(2,6-difluorobenzyl)-5-oxo-4,5-dihydro-1H-1,2,4-triazol-1-yl)-2-fluorophenoxy)-3-methylpyridin-2-yl)-3-methylazetidine-3-carbonitrile], the IC50 under setting [2] is below 0.1 µM. For `O=c1n(Cc2c(F)cccc2F)cnn1-c1ccc(Oc2ccnnc2)cc1` [Example 431, 4-(2,6-difluorobenzyl)-2-(4-(pyridazin-4-yloxy)phenyl)-2,4-dihydro-3H-1,2,4-triazol-3-one], under setting [2], the IC50 was in the range of 1 to 10 µM. With `Cc1c(Oc2ccc(-n3ncn(Cc4c(F)cccc4F)c3=O)cc2)ccnc1NC12CC(C#N)(C1)C2` [Example 247, 3-((4-(4-(4-(2,6-difluorobenzyl)-5-oxo-4,5-dihydro-1H-1,2,4-triazol-1-yl)phenoxy)-3-methylpyridin-2-yl)amino)bicyclo[1.1.1]pentane-1-carbonitrile], the IC50 under setting [2] was below 0.1 µM. As for `CCOC1CN(c2cc(Oc3ccc(-n4ncn(Cc5c(F)cccc5F)c4=O)cc3)ccn2)C1` [Example 336, 4-(2,6-difluorobenzyl)-2-(4-((2-(3-ethoxyazetidin-1-yl)pyridin-4-yl)oxy)phenyl)-2,4-dihydro-3H-1,2,4-triazol-3-one], the IC50 under setting [2] is below 0.1 µM. As for `Cc1nc(N2CC(OC3CC3)C2)sc1Oc1ccc(-n2ncn(Cc3c(F)cccc3F)c2=O)cc1` [Example 47, 2-(4-((2-(3-cyclopropoxyazetidin-1-yl)-4-methylthiazol-5-yl)oxy)phenyl)-4-(2,6-difluorobenzyl)-2,4-dihydro-3H-1,2,4-triazol-3-one], the IC50 under setting [3] is below 0.1 µM. On to `Cc1nc(N2C[C@@H](N)[C@@H]2C)sc1Oc1ccc(-n2ncn(Cc3c(F)cccc3F)c2=O)cc1` [Example 72, 2-(4-((2-((2S,3R)-3-amino-2-methylazetidin-1-yl)-4-methylthiazol-5-yl)oxy)phenyl)-4-(2,6-difluorobenzyl)-2,4-dihydro-3H-1,2,4-triazol-3-one], for which, where the note is “HT-29 cells stimulated with TNF-α (10 ng/ml), SMAC mimetic (6 μM) and zVAD-FMK (10 μM), 20 hours, CellTiter-Glo ATP luminescence, geometric mean IC50 from 10 points, read-out: Activity”, the IC50 is below 0.1 µM. On to `C[C@@H]1[C@H](C#N)CN1c1nccc(Oc2ccc(-n3ncn(Cc4c(F)cccc4F)c3=O)cc2F)c1F` [Example 389, (2R,3R)-1-(4-(4-(4-(2,6-difluorobenzyl)-5-oxo-4,5-dihydro-1H-1,2,4-triazol-1-yl)-2-fluorophenoxy)-3-fluoropyridin-2-yl)-2-methylazetidine-3-carbonitrile], for which the IC50 under setting [2] is below 0.1 µM. Take `Cc1nc(C(N)=O)c(C)n1Cc1ccc(-n2ncn(Cc3c(F)cccc3F)c2=O)cc1F` [Example 217, 1-(4-(4-(2,6-difluorobenzyl)-5-oxo-4,5-dihydro-1H-1,2,4-triazol-1-yl)-2-fluorobenzyl)-2,5-dimethyl-1H-imidazole-4-carboxamide]: under setting [1], the IC50 fell in the range of 0.1 to 1 µM. `Cc1nc(Br)sc1Oc1ccc(-n2ncn(Cc3cc(Cl)ccn3)c2=O)cc1F` [Example 573, 2-(4-((2-bromo-4-methylthiazol-5-yl)oxy)-3-fluorophenyl)-4-((4-chloropyridin-2-yl)methyl)-2,4-dihydro-3H-1,2,4-triazol-3-one]: under setting [1], the IC50 was 0.1 to 1 µM.

Take `Cc1nc(C(C)(C)O)sc1Oc1ccc(-n2ncn(Cc3c(F)cccc3F)c2=O)cc1Cl` [Example 583, 2-(3-chloro-4-((2-(2-hydroxypropan-2-yl)-4-methylthiazol-5-yl)oxy)phenyl)-4-(2,6-difluorobenzyl)-2,4-dihydro-3H-1,2,4-triazol-3-one]: the IC50 under setting [1] was below 0.1 µM. As for `Cc1cc(-n2ncn(Cc3c(F)cccc3F)c2=O)ccc1Oc1cc(NC23CC(C#N)(C2)C3)ncc1F` [Example 308, 3-((4-(4-(4-(2,6-difluorobenzyl)-5-oxo-4,5-dihydro-1H-1,2,4-triazol-1-yl)-2-methylphenoxy)-5-fluoropyridin-2-yl)amino)bicyclo[1.1.1]pentane-1-carbonitrile], the IC50 under setting [2] was in the range of 0.1 to 1 µM.

`CC(C)(C)OC(=O)N1CC2(CCN2c2cc(Oc3ccc(-n4ncn(Cc5c(F)cccc5F)c4=O)cc3)ccn2)C1` [Example 499, tert-butyl 1-(4-(4-(4-(2,6-difluorobenzyl)-5-oxo-4,5-dihydro-1H-1,2,4-triazol-1-yl)phenoxy)pyridin-2-yl)-1,6-diazaspiro[3.3]heptane-6-carboxylate]: under setting [1], the IC50 lay within 0.1 to 1 µM.

Consider `CC(C)(O)C1CCN1c1cc(Oc2ccc(-n3ncn(Cc4c(F)cccc4F)c3=O)cc2F)c(F)cn1` (stereo not shown) [Example 293, 4-(2,6-difluorobenzyl)-2-(3-fluoro-4-((5-fluoro-2-(2-(2-hydroxypropan-2-yl)azetidin-1-yl)pyridin-4-yl)oxy)phenyl)-2,4-dihydro-3H-1,2,4-triazol-3-one], for which, under setting [2], the IC50 is below 0.1 µM.

As to `Cn1ncc([N+](=O)[O-])c1Oc1ccc(-n2ncn(Cc3c(F)cccc3F)c2=O)cc1` [Example 95, 4-(2,6-difluorobenzyl)-2-(4-((1-methyl-4-nitro-1H-pyrazol-5-yl)oxy)phenyl)-2,4-dihydro-3H-1,2,4-triazol-3-one], the IC50 under setting [3] fell in the range of 0.1 to 1 µM. Regarding `O=c1n(Cc2c(F)cccc2F)cnn1-c1ccc(Oc2c(Cl)ccnc2N2CC3(CCOCC3)C2)cc1` [Example 673, 2-(4-((4-chloro-2-(7-oxa-2-azaspiro[3.5]nonan-2-yl)pyridin-3-yl)oxy)phenyl)-4-(2,6-difluorobenzyl)-2,4-dihydro-3H-1,2,4-triazol-3-one], the IC50 (Homo sapiens, HT-29, HT-29 cells, necroptosis induced by TNF-α/SMAC mimetic/zVAD-FMK, CellTiter-Glo, read-out: Activity (IC50 class)) was above 10 µM. With `COC(=O)c1nc(C)c(Oc2ccc(-n3nc4n(c3=O)[C@H](c3ccccc3)CC4)cc2F)s1` (single isomer, unassigned) [Example 36], the IC50 under setting [3] was below 0.1 µM. Still for that read-out and setting: then `Cc1nc(Br)sc1Oc1ccc(-n2ncn(Cc3ccccc3C#N)c2=O)cc1F` [Example 6, 2-((1-(4-((2-bromo-4-methylthiazol-5-yl)oxy)-3-fluorophenyl)-5-oxo-1-5-dihydro-4H-1,2,4-triazol-4-yl)methyl)benzonitrile], with 0.1 to 1 µM. `O=c1n(Cc2c(F)cccc2F)cnn1-c1ccc(Oc2ccnc(NCC3CCC3)c2)cc1` [Example 342, 2-(4-((2-((cyclobutylmethyl)amino)pyridin-4-yl)oxy)phenyl)-4-(2,6-difluorobenzyl)-2,4-dihydro-3H-1,2,4-triazol-3-one]: the IC50 under setting [2] lay in the range of 0.1 to 1 µM. Regarding `N#Cc1cc(Oc2ccc(-n3ncn(Cc4c(F)cccc4F)c3=O)cc2)ccn1` [Example 405, 4-(4-(4-(2,6-difluorobenzyl)-5-oxo-4,5-dihydro-1H-1,2,4-triazol-1-yl)phenoxy)picolinonitrile], under setting [2], the IC50 was in the range of 0.1 to 1 µM.

For `Cc1nn(-c2ccc(N(C)c3ccccc3)cc2)c(=O)n1Cc1ccccc1` [Example 67, 4-benzyl-5-methyl-2-(4-(methyl(phenyl)amino)phenyl)-2,4-dihydro-3H-1,2,4-triazol-3-one], the IC50 under setting [3] was 0.1 to 1 µM. As for `Cc1nc(C(C)(C)O)sc1Oc1ccc(-n2ncn(Cc3ncccc3Cl)c2=O)cc1F` [Example 466, 4-((3-chloropyridin-2-yl)methyl)-2-(3-fluoro-4-((2-(2-hydroxypropan-2-yl)-4-methylthiazol-5-yl)oxy)phenyl)-2,4-dihydro-3H-1,2,4-triazol-3-one], the IC50 under setting [2] was below 0.1 µM. As to `CN(CC1CCCO1)c1nccc(Oc2ccc(-n3ncn(Cc4c(F)cccc4F)c3=O)cc2)c1F` (stereo not shown) [Example 487, 4-(2,6-difluorobenzyl)-2-(4-((3-fluoro-2-(methyl((tetrahydrofuran-2-yl)methyl)amino)pyridin-4-yl)oxy)phenyl)-2,4-dihydro-3H-1,2,4-triazol-3-one], under setting [1], the IC50 lay within 0.1 to 1 µM. For `O=c1n(Cc2c(F)cccc2F)cnn1-c1ccc(Oc2ccnc(N3CC4(CCCCO4)C3)c2)cc1` [Example 334, 2-(4-((2-(5-oxa-2-azaspiro[3.5]nonan-2-yl)pyridin-4-yl)oxy)phenyl)-4-(2,6-difluorobenzyl)-2,4-dihydro-3H-1,2,4-triazol-3-one], the IC50 under setting [2] is below 0.1 µM. `Cc1nc(N2CC(C)(N)C2)sc1Oc1ccc(-n2ncn(Cc3c(F)cccc3F)c2=O)cc1` [Example 390, 2-(4-((2-(3-amino-3-methylazetidin-1-yl)-4-methylthiazol-5-yl)oxy)phenyl)-4-(2,6-difluorobenzyl)-2,4-dihydro-3H-1,2,4-triazol-3-one]: under setting [2], the IC50 was below 0.1 µM. As to `C[C@H]1[C@@H](N)CN1c1cc(Oc2ccc(-n3ncn(Cc4c(F)cccc4F)c3=O)cc2F)c(F)cn1` [Example 415, 2-(4-((2-((2S,3S)-3-amino-2-methylazetidin-1-yl)-5-fluoropyridin-4-yl)oxy)-3-fluorophenyl)-4-(2,6-difluorobenzyl)-2,4-dihydro-3H-1,2,4-triazol-3-one], the IC50 under setting [2] is below 0.1 µM.
